Measurements taken from patent US20230391766A1, “1-(2-(4-CYCLOPROPYL-1H-1,2,3-TRIAZOL-1-YL)ACETYL)-4-HYDROXY-N-(BENZYL)PYRROLIDIN E-2-CARBOXAMIDE DERIVATIVES AS VHL INHIBITORS FOR THE TREATMENT OF ANEMIA AND CANCER” (Genentech, Inc., priority 2020, published 2023).
pEC50, pIC50: −log10 of the molar value.

Assays:
VHL [1] = target: T1, VHL (Homo sapiens, UniProt P40337); assay: VHL HEK-293 BRET Assay (VHL NanoBRET Target Engagement Assay); format: cell-based; settings: for pIC50: HEK 293 RT VHL-NanoLuc stable cells, 1 uM tracer, 2 hours, geometric mean where more than one measurement, read-out: VHL binding in cells (HEK293 nanoBRET); for Ratio cell permeability shift: ratio not defined
T1 construct: expressed in transfected cells
Protocol: (§1) The VHL NanoBRET™ Target Engagement Assay analyzes the apparent affinity of test compounds for VHL in cells by competitive displacement of a VHL NanoBRET™ tracer reversibly bound to a NanoLuc® VHL fusion protein stably expressed in the cells.
(§2) 50 nL of control compound (10 mM; parental unlabeled VHL antagonist; see structure below) and 50 nL of DMSO (negative control) were dispensed into the appropriate control wells. DMSO was backfilled to a final volume of 50 nL as required. […] Max Signal control wells consisted of DMSO only treated wells. Minimum Signal control wells contained of 10 uM parental unlabeled VHL antagonist (control compound—see structure below). […] Background Signal control wells were prepared without tracer for background correction steps.
(§3) The raw BRET ratio values were calculated by dividing the acceptor emission value (610 nm) by the donor emission value (460 nm) for each sample. To correct for background, the BRET ratio in the absence of tracer (average of no-tracer control samples) was subtracted from the BRET ratio of each sample. Raw BRET units were converted to milliBRET units (mBU) by multiplying each raw BRET value by 1,000. The normalized NanoBRET™ signal was calculated relative to the Max Signal control wells (DMSO treated control wells) and the Minimum Signal control wells. Percentage inhibition was calculated relative to the Minimum Signal control and Maximum Signal control wells. IC50 values were derived by four parameter curve fitting using the Robust method.

VHL [2] = target: T1, VHL; assay: VHL nanoBRET (+ Digitonin); format: cell-based
Protocol: as §1, §2, §3

T1 sequence (P40337 whole entry): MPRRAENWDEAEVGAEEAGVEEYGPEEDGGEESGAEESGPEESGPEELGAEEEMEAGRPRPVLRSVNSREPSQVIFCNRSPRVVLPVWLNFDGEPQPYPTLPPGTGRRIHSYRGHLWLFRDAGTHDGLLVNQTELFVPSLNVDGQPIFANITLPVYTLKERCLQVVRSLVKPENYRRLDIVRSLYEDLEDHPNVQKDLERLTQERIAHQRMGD

pIC50 (VHL [1])	Ratio cell permeability shift (VHL [1])	pEC50 (VHL [2])	Structure (SMILES)
6.72	0.96	6.70	NC(=O)[C@@H](Cc1ccc(-c2ccccc2)cc1)NC(=O)[C@@H]1C[C@@H](O)CN1C(=O)[C@H](C1CCC1)n1cc(C2CC2)nn1 [Example S4, (2S,4R)—N—((R)-3-([1,1′-biphenyl]-4-yl)-1-amino-1-oxopropan-2-yl)-1-((S)-2-cyclobutyl-2-(4-cyclopropyl-1H-1,2,3-triazol-1-yl)acetyl)-4-hydroxypyrrolidine-2-carboxamide]
6.89	0.77	6.77	CC[C@H](C)[C@@H](C(=O)N1C[C@H](O)C[C@H]1C(=O)N[C@H](Cc1ccc(-c2ccccc2)cc1)C(N)=O)n1cc(C2CC2)nn1 [Example S5, (2S,4R)—N—((R)-3-([1,1′-biphenyl]-4-yl)-1-amino-1-oxopropan-2-yl)-1-((2S,3S)-2-(4-cyclopropyl-1H-1,2,3-triazol-1-yl)-3-methylpentanoyl)-4-hydroxypyrrolidine-2-carboxamide]
7.00	0.76	6.85	CCC(C)(C)[C@@H](C(=O)N1C[C@H](O)C[C@H]1C(=O)N[C@H](Cc1ccc(-c2ccccc2)cc1)C(N)=O)n1cc(C2CC2)nn1 [Example S6, (2S,4R)—N—((R)-3-([1,1′-biphenyl]-4-yl)-1-amino-1-oxopropan-2-yl)-1-((S)-2-(4-cyclopropyl-1H-1,2,3-triazol-1-yl)-3,3-dimethylpentanoyl)-4-hydroxypyrrolidine-2-carboxamide]
6.96	0.68	6.80	C=CC(C)(C)[C@@H](C(=O)N1C[C@H](O)C[C@H]1C(=O)N[C@H](Cc1ccc(-c2ccccc2)cc1)C(N)=O)n1cc(C2CC2)nn1 [Example S7, (2S,4R)—N—((R)-3-([1,1′-biphenyl]-4-yl)-1-amino-1-oxopropan-2-yl)-1-((S)-2-(4-cyclopropyl-1H-1,2,3-triazol-1-yl)-3,3-dimethylpent-4-enoyl)-4-hydroxypyrrolidine-2-carboxamide]
6.92	0.73	6.80	NC(=O)[C@@H](Cc1ccc(-c2ccccc2)cc1)NC(=O)[C@@H]1C[C@@H](O)CN1C(=O)[C@@H](n1cc(C2CC2)nn1)C12CC3CC(CC(C3)C1)C2 [Example S8, (2S,4R)—N—((R)-3-([1,1′-biphenyl]-4-yl)-1-amino-1-oxopropan-2-yl)-1-((2S)-2-(adamantan-1-yl)-2-(4-cyclopropyl-1H-1,2,3-triazol-1-yl)acetyl)-4-hydroxypyrrolidine-2-carboxamide]
< 4.00	–	4.61	CC(=O)NCC1(c2cn([C@@H](C(=O)N3C[C@H](O)C[C@H]3C(=O)N[C@H](Cc3ccc(-c4ccccc4)cc3)C(N)=O)C(C)(C)C)nn2)CC1 [Example S12, (2S,4R)—N—((R)-3-([1,1′-biphenyl]-4-yl)-1-amino-1-oxopropan-2-yl)-1-((R)-2-(4-(1-(acetamidomethyl)cyclopropyl)-1H-1,2,3-triazol-1-yl)-3,3-dimethylbutanoyl)-4-hydroxypyrrolidine-2-carboxamide]
5.64	10.22	6.66	CC(=O)NCC1(c2cn([C@H](C(=O)N3C[C@H](O)C[C@H]3C(=O)N[C@H](Cc3ccc(-c4ccccc4)cc3)C(N)=O)C(C)(C)C)nn2)CC1 [Example S13, (2S,4R)—N—((R)-3-([1,1′-biphenyl]-4-yl)-1-amino-1-oxopropan-2-yl)-1-((S)-2-(4-(1-(acetamidomethyl)cyclopropyl)-1H-1,2,3-triazol-1-yl)-3,3-dimethylbutanoyl)-4-hydroxypyrrolidine-2-carboxamide]
4.16	115.18	6.21	CC(C)(C)[C@@H](C(=O)N1C[C@H](O)C[C@H]1C(=O)N[C@H](Cc1ccc(-c2ccccc2)cc1)C(N)=O)n1cc(C(=O)O)nn1 [Example S15, 1-((S)-1-((2S,4R)-2-(((R)-3-([1,1′-biphenyl]-4-yl)-1-amino-1-oxopropan-2-yl)carbamoyl)-4-hydroxypyrrolidin-1-yl)-3,3-dimethyl-1-oxobutan-2-yl)-1H-1,2,3-triazole-4-carboxylic acid]
5.48	8.30	6.40	CC(C)(C)[C@@H](C(=O)N1C[C@H](O)C[C@H]1C(=O)N[C@H](Cc1ccc(-c2ccccc2)cc1)C(N)=O)n1cc(C(N)=O)nn1 [Example S16, 1-((S)-1-((2S,4R)-2-(((R)-3-([1,1′-biphenyl]-4-yl)-1-amino-1-oxopropan-2-yl)carbamoyl)-4-hydroxypyrrolidin-1-yl)-3,3-dimethyl-1-oxobutan-2-yl)-1H-1,2,3-triazole-4-carboxamide]
8.00	0.85	8.00	Cc1ncsc1-c1ccc([C@H](C)NC(=O)[C@@H]2C[C@@H](O)CN2C(=O)[C@@H](n2cc(C3CC3)nn2)C(C)(C)C)cc1 [Example S18, (2S,4R)-1-((S)-2-(4-cyclopropyl-1H-1,2,3-triazol-1-yl)-3,3-dimethylbutanoyl)-4-hydroxy-N—((S)-1-(4-(4-methylthiazol-5-yl)phenyl)ethyl)pyrrolidine-2-carboxamide]
–	0.67	–	Cc1ncsc1-c1ccc(CNC(=O)[C@@H]2C[C@@H](O)CN2C(=O)[C@H](C2CCCCC2)n2cc(C3CC3)nn2)cc1 [Example S25, (2S,4R)-1-((S)-2-cyclohexyl-2-(4-cyclopropyl-1H-1,2,3-triazol-1-yl)acetyl)-4-hydroxy-N-(4-(4-methylthiazol-5-yl)benzyl)pyrrolidine-2-carboxamide]
–	–	< 4.00	Cc1c(C(=O)O)nnn1[C@@H](C(=O)N1C[C@H](O)C[C@H]1C(=O)N[C@H](Cc1ccc(-c2ccccc2)cc1)C(N)=O)C(C)C [Example S34, 1-((R)-1-((2S,4R)-2-(((R)-3-([1,1′-biphenyl]-4-yl)-1-amino-1-oxopropan-2-yl)carbamoyl)-4-hydroxypyrrolidin-1-yl)-3-methyl-1-oxobutan-2-yl)-5-methyl-1H-1,2,3-triazole-4-carboxylic acid]
–	–	4.89	Cc1c(C(=O)O)nnn1[C@H](C(=O)N1C[C@H](O)C[C@H]1C(=O)N[C@H](Cc1ccc(-c2ccccc2)cc1)C(N)=O)C(C)C [Example S35, 1-((S)-1-((2S,4R)-2-(((R)-3-([1,1′-biphenyl]-4-yl)-1-amino-1-oxopropan-2-yl)carbamoyl)-4-hydroxypyrrolidin-1-yl)-3-methyl-1-oxobutan-2-yl)-5-methyl-1H-1,2,3-triazole-4-carboxylic acid]

More lines, now with the values behind:

Structure (SMILES)	pIC50 (VHL [1])	Ratio cell permeability shift (VHL [1])	pEC50 (VHL [2])
COC(=O)c1nnn([C@@H](C(=O)N2C[C@H](O)C[C@H]2C(=O)N[C@H](Cc2ccc(-c3ccccc3)cc2)C(N)=O)C(C)C)c1C (single isomer, unassigned) [Isomer A from Example S33]	4.20	1.43	4.36
CC(C)[C@@H](C(=O)N1C[C@H](O)C[C@H]1C(=O)N[C@H](Cc1ccc(-c2ccccc2)cc1)C(N)=O)n1nnc2ccccc21 (single isomer, unassigned) [Isomer A from Example S36]	6.52	0.77	6.41
COC(=O)c1nnn([C@H](C(=O)N2C[C@H](O)C[C@H]2C(=O)N[C@H](Cc2ccc(-c3ccccc3)cc2)C(N)=O)C(C)C)c1C (single isomer, unassigned) [Isomer B from Example S33]	5.79	1.64	6.00
CC(C)[C@H](C(=O)N1C[C@H](O)C[C@H]1C(=O)N[C@H](Cc1ccc(-c2ccccc2)cc1)C(N)=O)n1nnc2ccccc21 (single isomer, unassigned) [Isomer B from Example S36]	4.16	1.01	4.17
C#CC1(c2cn([C@H](C(=O)N3C[C@H](O)C[C@H]3C(=O)NCc3ccc(-c4scnc4C)cc3)C(C)(C)C)nn2)CC1 [Compound 30, (2S,4R)-1-((S)-2-(4-(1-ethynylcyclopropyl)-1H-1,2,3-triazol-1-yl)-3,3-dimethylbutanoyl)-4-hydroxy-N-(4-(4-methylthiazol-5-yl)benzyl)pyrrolidine-2-carboxamide]	7.70	1.15	7.70
Cc1ncsc1-c1ccc(CNC(=O)[C@@H]2C[C@@H](O)CN2C(=O)[C@@H](n2cc(C3(c4cn([C@H](C(=O)N5C[C@H](O)C[C@H]5C(=O)NCc5ccc(-c6scnc6C)cc5)C(C)(C)C)nn4)CC3)nn2)C(C)(C)C)cc1 [Compound 31, (2S,2'S,4R,4′R)-1,1′-((2S,2'S)-2,2′-(cyclopropane-1,1-diylbis(JH-1,2,3-triazole-4,1-diyl))bis(3,3-dimethylbutanoyl))bis(4-hydroxy-N-(4-(4-methylthiazol-5-yl)benzyl)pyrrolidine-2-carboxamide)]	6.51	19.75	7.70
